From US20110305632A1, “PROCESS FOR THE PREPARATION OF ASYMMETRICAL BIS(THIOSEMICARBAZONES)” (THE UNIVERSITY OF MELBOURNE, priority 2008, published 2011)

Test: Cyclic voltammetry of Cu(II) bis(thiosemicarbazonato) complexes (half-wave potentials and peak separations)
Assay type: physicochemical
Settings: DMF
Procedure: Voltametric experiments were performed with an Autolab (Eco Chemie, Utrecht, Netherlands) computer-controlled electrochemical workstation.
Recent studies have shown that in vivo stability of bifunctional chelators of copper is not only dependent on the thermodynamic stability and kinetic inertness of the complex but also the susceptibility to reduction of Cu(II) to Cu(I). Intracellular reductants with thiols, such as cysteine-rich metallothioneins, may act as effective reductants of Cu(II) and scavengers of the labile Cu(I) ions.

[1] = cyclic voltammogram, scan rate 0.1 V s^−1, glassy carbon electrode
[2] = cyclic voltammogram, scan rate 0.1 V s^−1, potentials relative to SCE, glassy carbon electrode

reversibility of the Cu(II)/Cu(I) reduction (cyclic voltammetry, glassy carbon electrode): quasi-reversible
Cu^II/Cu^I Epa − Epc (anodic to cathodic peak separation) [1]: 102 mV
Cu^III/Cu^II Epa − Epc (anodic to cathodic peak separation) [1]: 94 mV
Cu^II/Cu^I E1/2 [2]: -0.63 V
Cu^III/Cu^II E1/2 [2]: 0.75 V
E1/2 of Cu(II)/Cu(I) reduction (vs. SCE (Fc/Fc+ 0.54 V), glassy carbon working electrode): −0.63 V
Compound: CN=C([S-])N/N=C(C)/C(C)=N/NC([S-])=NC.[Cu+2] [Cu^II(atsm)]
